Data as given in patent US12479840B2, “HMG-CoA reductase degradation inducing compound” (Uppthera, priority 2020, dated 2025).

target: T1, HMG-CoA reductase (Homo sapiens, UniProt P04035); experiment: HMG-CoA reductase (HMGCR) degradation in HepG2 cells by western blotting; assay type: cell-based; details: treated for 18 hours, ratio of HMG-CoA reductase to GAPDH, read-out: DC50
T1 construct: endogenous in cells; host or cells: HepG2 (Korea Cell Line Bank)
T1 sequence (P04035 1-888): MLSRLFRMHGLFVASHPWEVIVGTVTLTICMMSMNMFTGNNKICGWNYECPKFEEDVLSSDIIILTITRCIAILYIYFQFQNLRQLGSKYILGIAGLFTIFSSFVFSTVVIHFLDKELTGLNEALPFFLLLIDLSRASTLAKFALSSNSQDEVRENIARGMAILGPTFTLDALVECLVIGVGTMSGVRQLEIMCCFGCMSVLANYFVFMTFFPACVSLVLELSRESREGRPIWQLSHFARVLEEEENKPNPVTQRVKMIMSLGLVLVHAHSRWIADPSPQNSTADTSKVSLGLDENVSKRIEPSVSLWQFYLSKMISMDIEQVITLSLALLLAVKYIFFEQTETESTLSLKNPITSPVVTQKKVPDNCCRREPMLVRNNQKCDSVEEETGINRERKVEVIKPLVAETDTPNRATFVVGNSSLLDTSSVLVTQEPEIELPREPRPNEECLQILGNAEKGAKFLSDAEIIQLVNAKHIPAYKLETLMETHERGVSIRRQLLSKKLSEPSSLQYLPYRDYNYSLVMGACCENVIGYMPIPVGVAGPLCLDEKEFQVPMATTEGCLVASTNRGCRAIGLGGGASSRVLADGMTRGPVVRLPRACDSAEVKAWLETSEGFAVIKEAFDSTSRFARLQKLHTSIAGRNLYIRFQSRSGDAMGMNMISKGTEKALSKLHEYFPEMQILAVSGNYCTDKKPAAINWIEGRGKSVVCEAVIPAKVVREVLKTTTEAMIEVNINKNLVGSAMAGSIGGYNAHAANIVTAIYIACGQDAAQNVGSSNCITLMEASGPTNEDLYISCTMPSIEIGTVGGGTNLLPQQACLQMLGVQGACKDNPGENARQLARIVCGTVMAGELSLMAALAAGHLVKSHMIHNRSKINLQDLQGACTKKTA
In short: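 HepG2 cells (passage P105–P110) treated 18 hours with compounds in 10-point three-fold dilutions from 3 μM. RIPA lysates (15 μg protein, BCA-quantified) run on SDS-PAGE and immunoblotted for HMGCR (1:500) with GAPDH (1:20000) as loading control, primary antibodies 16 hours at 4° C.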

Row | DC50 [nM] | SMILES
1 | < 50 | C[C@H]1C=C2C=C[C@H](C)[C@H](CC[C@@H]3C[C@@H](O[Si](C)(C)C(C)(C)C)CC(=O)O3)[C@H]2[C@@H](OC(=O)NCCOCCOCC#Cc2cccc3c2C(=O)N(C2CCC(=O)NC2=O)C3=O)C1 (stereo partly drawn) [Compound 114, (1S,3R,7S,8S,8aR)-8-(2-((2R,4R)-4-((tert-butyldimethylsilyl)oxy)-6-oxotetrahydro-2H-pyran-2-yl)ethyl)-3,7-dimethyl-1,2,3,7,8,8a-hexahydronaphthalen-1-yl (2-(2-((3-(2-(2,6-dioxopiperidin-3-yl)-1,3-dioxoisoindolin-4-yl)prop-2-yn-1-yl)oxy)ethoxy)ethyl)carbamate]
2 | < 50 | C[C@H]1C=C2C=C[C@H](C)[C@H](CC[C@@H]3C[C@@H](O)CC(=O)O3)[C@H]2[C@@H](OC(=O)NCCOCCOCC#Cc2cccc3c2C(=O)N(C2CCC(=O)NC2=O)C3=O)C1 (stereo partly drawn) [Compound 115, (1S,3R,7S,8S,8aR)-8-(2-((2R,4R)-4-hydroxy-6-oxotetrahydro-2H-pyran-2-yl)ethyl)-3,7-dimethyl-1,2,3,7,8,8a-hexahydronaphthalen-1-yl (2-(2-((3-(2-(2,6-dioxopiperidin-3-yl)-1,3-dioxoisoindolin-4-yl)prop-2-yn-1-yl)oxy)ethoxy)ethyl)carbamate]
3 | < 50 | C[C@H]1C=C2C=C[C@H](C)[C@H](CC[C@@H]3C[C@@H](O[Si](C)(C)C(C)(C)C)CC(=O)O3)[C@H]2[C@@H](OC(=O)NCCCCCN2CCC(Nc3cccc4c3C(=O)N(C3CCC(=O)NC3=O)C4=O)CC2)C1 (stereo partly drawn) [Compound 124, (1S,3R,7S,8S,8aR)-8-(2-((2R,4R)-4-((tert-butyldimethylsilyl)oxy)-6-oxotetrahydro-2H-pyran-2-yl)ethyl)-3,7-dimethyl-1,2,3,7,8,8a-hexahydronaphthalen-1-yl (5-(4-((2-(2,6-dioxopiperidin-3-yl)-1,3-dioxoisoindolin-4-yl)amino)piperidin-1-yl)pentyl)carbamate]
4 | 50 to 500 | C[C@H]1C=C2C=C[C@H](C)[C@H](CC[C@@H]3C[C@@H](O[Si](C)(C)C(C)(C)C)CC(=O)O3)[C@H]2[C@@H](OC(=O)NCCCCCCN2CCC(Nc3cccc4c3C(=O)N(C3CCC(=O)NC3=O)C4=O)CC2)C1 (stereo partly drawn) [Compound 125, (1S,3R,7S,8S,8aR)-8-(2-((2R,4R)-4-((tert-butyldimethylsilyl)oxy)-6-oxotetrahydro-2H-pyran-2-yl)ethyl)-3,7-dimethyl-1,2,3,7,8,8a-hexahydronaphthalen-1-yl (6-(4-((2-(2,6-dioxopiperidin-3-yl)-1,3-dioxoisoindolin-4-yl)amino)piperidin-1-yl)hexyl)carbamate]
5 | < 50 | C[C@H]1C=C2C=C[C@H](C)[C@H](CC[C@@H]3C[C@@H](O)CC(=O)O3)[C@H]2[C@@H](OC(=O)NCCCCCN2CCC(Nc3cccc4c3C(=O)N(C3CCC(=O)NC3=O)C4=O)CC2)C1 (stereo partly drawn) [Compound 126, (1S,3R,7S,8S,8aR)-8-(2-((2R,4R)-4-hydroxy-6-oxotetrahydro-2H-pyran-2-yl)ethyl)-3,7-dimethyl-1,2,3,7,8,8a-hexahydronaphthalen-1-yl (5-(4-((2-(2,6-dioxopiperidin-3-yl)-1,3-dioxoisoindolin-4-yl)amino)piperidin-1-yl)pentyl)carbamate]
6 | 50 to 500 | C[C@H]1C=C2C=C[C@H](C)[C@H](CC[C@@H]3C[C@@H](O)CC(=O)O3)[C@H]2[C@@H](OC(=O)NCCCCCCN2CCC(Nc3cccc4c3C(=O)N(C3CCC(=O)NC3=O)C4=O)CC2)C1 (stereo partly drawn) [Compound 127, (1S,3R,7S,8S,8aR)-8-(2-((2R,4R)-4-hydroxy-6-oxotetrahydro-2H-pyran-2-yl)ethyl)-3,7-dimethyl-1,2,3,7,8,8a-hexahydronaphthalen-1-yl (6-(4-((2-(2,6-dioxo piperidin-3-yl)-1,3-dioxoisoindolin-4-yl)amino)piperidin-1-yl)hexyl)carbamate]
7 | < 50 | C[C@H]1C=C2C=C[C@H](C)[C@H](CC[C@@H]3C[C@@H](O[Si](C)(C)C(C)(C)C)CC(=O)O3)[C@H]2[C@@H](OC(=O)NCCOCCNC(=O)COc2cccc3c2C(=O)N(C2CCC(=O)NC2=O)C3=O)C1 (stereo partly drawn) [Compound 128, (1S,3R,7S,8S,8aR)-8-(2-((2R,4R)-4-((tert-butyldimethylsilyl)oxy)-6-oxotetrahydro-2H-pyran-2-yl)ethyl)-3,7-dimethyl-1,2,3,7,8,8a-hexahydronaphthalen-1-yl (2-(2-(2-((2-(2,6-dioxopiperidin-3-yl)-1,3-dioxoisoindolin-4-yl)oxy)acetamido)ethoxy)ethyl)carbamate]
8 | < 50 | C[C@H]1C=C2C=C[C@H](C)[C@H](CC[C@@H]3C[C@@H](O)CC(=O)O3)[C@H]2[C@@H](OC(=O)NCCOCCNC(=O)COc2cccc3c2C(=O)N(C2CCC(=O)NC2=O)C3=O)C1 (stereo partly drawn) [Compound 129, (1S,3R,7S,8S,8aR)-8-(2-((2R,4R)-4-hydroxy-6-oxotetrahydro-2H-pyran-2-yl)ethyl)-3,7-dimethyl-1,2,3,7,8,8a-hexahydronaphthalen-1-yl (2-(2-(2-((2-(2,6-dioxopiperidin-3-yl)-1,3-dioxoisoindolin-4-yl)oxy)acetamido)ethoxy)ethyl)carbamate]
9 | < 50 | C[C@H]1C=C2C=C[C@H](C)[C@H](CC[C@@H]3C[C@@H](O)CC(=O)O3)[C@H]2[C@@H](OC(=O)NCCCOC2CCN(C(=O)COc3cccc4c3C(=O)N(C3CCC(=O)NC3=O)C4=O)CC2)C1 (stereo partly drawn) [Compound 135, (1S,3R,7S,8S,8aR)-8-(2-((2R,4R)-4-hydroxy-6-oxotetrahydro-2H-pyran-2-yl)ethyl)-3,7-dimethyl-1,2,3,7,8,8a-hexahydronaphthalen-1-yl (3-((1-(2-((2-(2,6-dioxopiperidin-3-yl)-1,3-dioxoisoindolin-4-yl)oxy)acetyl)piperidin-4-yl)oxy)propyl)carbamate]
10 | < 50 | C[C@H]1C=C2C=C[C@H](C)[C@H](CC[C@@H]3C[C@@H](O[Si](C)(C)C(C)(C)C)CC(=O)O3)[C@H]2[C@@H](OC(=O)NCCOCCOCCNC(=O)COc2cccc3c2C(=O)N(C2CCC(=O)NC2=O)C3=O)C1 (stereo partly drawn) [Compound 138, (1S,3R,7S,8S,8aR)-8-(2-((2R,4R)-4-((tert-butyldimethylsilyl)oxy)-6-oxotetrahydro-2H-pyran-2-yl)ethyl)-3,7-dimethyl-1,2,3,7,8,8a-hexahydronaphthalen-1-yl (2-(2-(2-(2-((2-(2,6-dioxopiperidin-3-yl)-1,3-dioxoisoindolin-4-yl)oxy)acetamido)ethoxy)ethoxy)ethyl)carbamate]

Row | SMILES | DC50 [nM]
11 | C[C@H]1C=C2C=C[C@H](C)[C@H](CC[C@@H]3C[C@@H](O[Si](C)(C)C(C)(C)C)CC(=O)O3)[C@H]2[C@@H](OC(=O)NCCCOCCCCNc2cccc3c2C(=O)N(C2CCC(=O)NC2=O)C3=O)C1 (stereo partly drawn) [Compound 120, (1S,3R,7S,8S,8aR)-8-(2-((2R,4R)-4-((tert-butyldimethylsilyl)oxy)-6-oxotetrahydro-2H-pyran-2-yl)ethyl)-3,7-dimethyl-1,2,3,7,8,8a-hexahydronaphthalen-1-yl (3-(4-((2-(2,6-dioxopiperidin-3-yl)-1,3-dioxoisoindolin-4-yl)amino)butoxy)propyl)carbamate] | 50 to 500
12 | C[C@H]1C=C2C=C[C@H](C)[C@H](CC[C@@H]3C[C@@H](O)CC(=O)O3)[C@H]2[C@@H](OC(=O)NCCCOCCCCNc2cccc3c2C(=O)N(C2CCC(=O)NC2=O)C3=O)C1 (stereo partly drawn) [Compound 121, (1S,3R,7S,8S,8aR)-8-(2-((2R,4R)-4-hydroxy-6-oxotetrahydro-2H-pyran-2-yl)ethyl)-3,7-dimethyl-1,2,3,7,8,8a-hexahydronaphthalen-1-yl (3-(4-((2-(2,6-dioxopiperidin-3-yl)-1,3-dioxoisoindolin-4-yl)amino)butoxy)propyl)carbamate] | < 50
13 | C[C@H]1C=C2C=C[C@H](C)[C@H](CC[C@@H]3C[C@@H](O[Si](C)(C)C(C)(C)C)CC(=O)O3)[C@H]2[C@@H](OC(=O)NCCCOC2CCN(C(=O)COc3cccc4c3C(=O)N(C3CCC(=O)NC3=O)C4=O)CC2)C1 (stereo partly drawn) [Compound 134, (1S,3R,7S,8S,8aR)-8-(2-((2R,4R)-4-((tert-butyldimethylsilyl)oxy)-6-oxotetrahydro-2H-pyran-2-yl)ethyl)-3,7-dimethyl-1,2,3,7,8,8a-hexahydronaphthalen-1-yl (3-((1-(2-((2-(2,6-dioxopiperidin-3-yl)-1,3-dioxoisoindolin-4-yl)oxy)acetyl)piperidin-4-yl)oxy)propyl)carbamate] | 50 to 500
